Structures are written as SMILES. Where a name gives a salt, the structure may show the parent alone.

The target in the experiment is T1, recombinant human NR2F6 protein (Homo sapiens, UniProt P10588).
T1 sequence (P10588 1-404): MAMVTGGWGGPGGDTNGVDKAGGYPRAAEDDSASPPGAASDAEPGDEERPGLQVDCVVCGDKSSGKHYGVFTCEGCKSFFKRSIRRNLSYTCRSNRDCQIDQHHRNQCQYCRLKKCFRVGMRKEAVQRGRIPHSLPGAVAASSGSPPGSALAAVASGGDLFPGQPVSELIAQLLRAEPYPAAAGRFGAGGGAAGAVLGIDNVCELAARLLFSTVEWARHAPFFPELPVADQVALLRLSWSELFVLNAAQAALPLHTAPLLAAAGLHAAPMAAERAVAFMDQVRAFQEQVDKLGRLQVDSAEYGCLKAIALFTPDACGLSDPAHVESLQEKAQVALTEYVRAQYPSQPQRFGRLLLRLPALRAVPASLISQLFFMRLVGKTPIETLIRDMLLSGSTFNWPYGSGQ
Briefly: Biochemical NR2F6 binding assay (EnSpire label-free). Particulars: label-free binding to immobilized purified recombinant human NR2F6; ligands 1 nM to 100 uM, 1% DMSO. In short, it runs like this: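 Recombinant human NR2F6 was immobilized at pH 4.5 (50 μg/well, 16 h, 4° C) on label-free biosensor plates. Ligands were tested from 1 nM to 100 uM in 1% DMSO, with readings over 30 minutes. Binding was measured as reflected-wavelength shift (pm), and EC50 was derived from concentration-response curves.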
With `O=C(Nc1cccc2cnccc12)[C@@H]1CNC[C@H]1c1ccccc1` [Compound I-40, (3S,4R)—N-(Isoquinolin-5-yl)-4-phenylpyrrolidine-3-carboxamide dihydrochloride], the EC50 was > 50 µM. For `O=C(Nc1cccc(-c2cccnc2)c1)c1c[nH]cc1-c1ccccc1` [Compound I-51, 4-Phenyl-N-[3-(pyridin-3-yl)phenyl]-1H-pyrrole-3-carboxamide], the EC50 was > 50 µM.

Take `O=C(Nc1cccc2cnccc12)[C@H]1CNC[C@@H]1c1ccc(C(F)(F)F)cc1` [Compound I-82, (3R,4S)-4-(4-Trifluorophenyl)-N-(isoquinolin-5-yl)pyrrolidine-3-carboxamide dihydrochloride]: the EC50 is > 50 µM.

Turning to `O=C(Nc1cccc2cnccc12)[C@H]1CNC[C@@H]1c1cccs1` [Compound I-44, (3R,4R)—N-(Isoquinolin-5-yl)-4-(thiophen-2-yl)pyrrolidine-3-carboxamide dihydrochloride], the EC50 is > 50 µM. To `O=C(Nc1cccc(-c2ccccc2)c1)[C@@H]1CNC[C@H]1c1ccccc1F` (racemic) [Compound I-28, (±)-trans-4-(2-Fluorophenyl)-pyrrolidine-3-carboxylic acid biphenyl-3-ylamide hydrochloride] belongs > 50 µM; to `O=C(Nc1cccc2c(Cl)nccc12)[C@H]1CNC[C@@H]1c1ccccc1` [Compound I-83, (3R,4S)—N-(1-Chloroisoquinolin-5-yl)-4-phenylpyrrolidine-3-carboxamide dihydrochloride], 1 to 10 µM; to `O=C(Nc1cccc(-c2ccccc2)c1)[C@@H]1CNC[C@H]1c1cccs1` (racemic) [Compound I-22, (±)-trans-N-(Biphenyl-3-yl)-4-(thiophen-2-yl)pyrrolidine-3-carboxamide hydrochloride], < 1 µM. Then `O=C(N[C@H]1C[C@H](Oc2cccnc2)C1)[C@H]1CNC[C@@H]1c1ccccc1` (racemic) [Compound I-101, (±)-trans-N-[trans-3-(Pyridyn-3-yloxy)cyclobutyl]-4-phenylpyrrolidine-3-carboxamide dihydrochloride], with 10 to 50 µM. As for `N#Cc1ccc(Oc2cccc(NC(=O)[C@H]3CNC[C@@H]3c3ccccc3)c2)cc1` [Compound I-111, (3R,4S)—N-[3-(4-Cyanophenoxy)phenyl]-4-phenylpyrrolidine-3-carboxamide hydrochloride], the EC50 was < 1 µM. In the case of `O=C(Nc1cccc2cnccc12)N1CCC(c2ccccc2)C1` (stereo not shown) [Compound I-79, N-(Isoquinolin-5-yl)-3-phenylpyrrolidine-1-carboxamide], the EC50 was > 50 µM. To `O=C(Nc1cccc2cnccc12)[C@@H]1CNC[C@H]1c1nccs1` [Compound I-59, (3S,4S)—N-(Isoquinolin-5-yl)-4-(1,3-thiazol-2-yl)pyrrolidine-3-carboxamide dihydrochloride] belongs > 50 µM; to `O=C(Nc1cccc2cccnc12)[C@@H]1CNC[C@H]1c1ccccc1` (racemic) [Compound I-18, (±)-trans-4-Phenyl-N-(quinolin-8-yl)pyrrolidine-3-carboxamide dihydrochloride], 10 to 50 µM. In the case of `S=C(Nc1cccc2cnccc12)N[C@@H]1CNC[C@H]1c1ccccc1` (racemic) [Compound I-7, (±)-trans-1-Isoquinolin-5-yl-3-(4-phenylpyrrolidin-3-yl)thiourea], the concentration giving a half-maximal response (EC50) is 1 to 10 µM.

As for `c1ccc([C@H]2CNC[C@@H]2OCc2cccc3cnccc23)cc1` (racemic) [Compound I-73, 5-({[(±)-trans-4-Phenylpyrrolidin-3-yl]oxy}methyl)isoquinoline dihydrochloride], the EC50 is > 50 µM. Then `S=C(Nc1cccc2cnccc12)O[C@@H]1CNC[C@@H]1c1ccccc1` (racemic) [Compound I-3, (±)-cis-O-(4-Phenylpyrrolidin-3-yl) isoquinolin-5-ylcarbamothioate], with 10 to 50 µM; and `N#Cc1ccc(N2CCC(NC(=O)[C@@H]3CNC[C@H]3c3ccccc3)CC2)cc1` [Compound I-122, (3S,4R)-3-{[1-(4-Cyanophenyl)lpiperidin-4-yl]carbamoyl]}-4-phenylpyrrolidine dihydrochloride], with < 1 µM.

As to `O=C(Nc1cccc(-c2cccnc2)c1)[C@@H]1CNC[C@H]1c1ccccc1` (racemic) [Compound I-11, (±)-trans-4-Phenyl-N-[3-(pyridin-3-yl)phenyl]pyrrolidine-3-carboxamide], the EC50 is 1 to 10 µM. As for `Cc1nccc2c(NC(=O)[C@H]3CNC[C@@H]3c3ccc(C(F)(F)F)cc3)cccc12` [Compound I-96, (3R,4S)—N-(1-Methylisoquinolin-5-yl)-4-[4-(trifluoromethyl)phenyl]pyrrolidine-3-carboxamide dihydrochloride], the EC50 lay within 1 to 10 µM.

As to `Cc1nccc2c(NC(=O)[C@H]3CNC[C@@H]3c3ccccc3)cccc12` [Compound I-30, (3R,4S)—N-(1-Methylisoquinolin-5-yl)-4-phenylpyrrolidine-3-carboxamide dihydrochloride], the EC50 was < 1 µM. For `c1ccc([C@H]2CNC[C@@H]2Nc2nc3cnccc3s2)cc1` (racemic) [Compound I-10, (±)-trans-N-[4-Phenylpyrrolidin-3-yl][1,3]thiazolo[4,5-c]pyridin-2-amine hydrochloride], the EC50 is > 50 µM. To `O=C(Nc1ccc(-c2ccccc2)cc1)[C@@H]1CNC[C@H]1c1ccccc1` (racemic) [Compound I-24, (±)-trans-N-(Biphenyl-4-yl)-4-phenylpyrrolidine-3-carboxamide hydrochloride] belongs 1 to 10 µM. For the molecule `O=C(Nc1cccc(Nc2cccnc2)c1)[C@H]1CNC[C@@H]1c1ccccc1` (racemic) [Compound I-106, (±)-trans-4-Phenyl-N-[3-(pyridin-3-ylamino)phenyl]pyrrolidine-3-carboxamide dihydrochloride], the EC50 is < 1 µM. As to `c1ccc([C@@H]2CNC[C@@H]2Oc2cccc3cnccc23)cc1` (racemic) [Compound I-61, 5-{[(±)-cis-4-Phenylpyrrolidin-3-yl]oxy}isoquinoline dihydrochloride], the EC50 was 1 to 10 µM. Then `O=C(Nc1ccc(-c2cccnc2)cc1)[C@H]1CNC[C@@H]1c1ccccc1` [Compound I-39, (3R,4S)-4-Phenyl-N-[4-(pyridin-3-yl)phenyl]pyrrolidine-3-carboxamide dihydrochloride], with > 50 µM. Then `N#Cc1ccc(Oc2cccc(NC(=O)[C@@H]3CNC[C@H]3c3ccccc3)c2)cc1` [Compound I-112, (3S,4R)—N-[3-(4-Cyanophenoxy)phenyl]-4-phenylpyrrolidine-3-carboxamide hydrochloride], with < 1 µM.

(Values after patent US20220213061A9, “HETEROCYCLIC COMPOUNDS FOR MODULATING NR2F6” (TES Pharma S.r.l., priority 2020, published 2022).)
